Source: US20240199649A1 (Biosplice Therapeutics, Inc., priority 2022, published 2024)

molecular target: recombinant DYRK1A kinase (Homo sapiens (Human), UniProt Q13627); test: DYRK1A kinase assay (Ser/Thr 18 peptide Z-lyte FRET assay); type: biochemical; conditions: DYRK1A 0.25 μg/mL, ATP 15 μM, Ser/Thr peptide 18 4 μM; one hour at room temperature; 11-point dose-response, duplicate
Procedure, shortened: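 Z-lyte FRET assay on Ser/Thr 18 peptide, kinase activity read as coumarin/fluorescein emission ratio; compounds incubated 1 h at room temperature, then development reagent 1 h, in duplicate. Phosphorylated and unphosphorylated peptide served as controls; IC50 by non-linear regression of dose-response curves.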

Row | Compound | IC50 [nM]
1 | CNc1nc(N[C@H]2CCN(C3COC3)C[C@H]2F)nn2ccc(-c3ccc4nnn(CC(F)F)c4n3)c12 [Compound 474, 5-(3-(2,2-Difluoroethyl)-3H-[1,2,3]triazolo[4,5-b]pyridin-5-yl)-N^2-((3R,4S)-3-fluoro-1-(oxetan-3-yl)piperidin-4-yl)-N^4-methylpyrrolo[2,1-f][1,2,4]triazine-2,4-diamine] | 1.3
2 | CNc1nc(N[C@@H]2CCN(C)CC2(F)F)nn2ccc(-c3ccc4nnn(CC(F)F)c4n3)c12 [Compound 479, (R)—N^2-(3,3-Difluoro-1-methylpiperidin-4-yl)-5-(3-(2,2-difluoroethyl)-3H-[1,2,3]triazolo[4,5-b]pyridin-5-yl)-N4-methylpyrrolo[2,1-f][1,2,4]triazine-2,4-diamine] | 0.6
3 | CNc1nc(N[C@@H]2CCN(C3COC3)CC2(F)F)nn2ccc(-c3ccc4nnn(CC(F)F)c4n3)c12 [Compound 480, (R)—N^2-(3,3-Difluoro-1-(oxetan-3-yl)piperidin-4-yl)-5-(3-(2,2-difluoroethyl)-3H-[1,2,3]triazolo[4,5-b]pyridin-5-yl)-N^4-methylpyrrolo[2,1-f][1,2,4]triazine-2,4-diamine] | 1.3
4 | CCNc1nc(N[C@@H]2CCNCC2(F)F)nn2ccc(-c3ccc4nc(C)n(CC(F)F)c4n3)c12 [Compound 482, (R)-5-(3-(2,2-Difluoroethyl)-2-methyl-3H-imidazo[4,5-b]pyridin-5-yl)-N^2-(3,3-difluoropiperidin-4-yl)-N^4-ethylpyrrolo[2,1-f][1,2,4]triazine-2,4-diamine] | 3.1
5 | CCNc1nc(N[C@@H]2CCN(C)CC2(F)F)nn2ccc(-c3ccc4nc(C)n(CC(F)F)c4n3)c12 [Compound 483, (R)—N^2-(3,3-difluoro-1-methylpiperidin-4-yl)-5-(3-(2,2-difluoroethyl)-2-methyl-3H-imidazo[4,5-b]pyridin-5-yl)-N^4-ethylpyrrolo[2,1-f][1,2,4]triazine-2,4-diamine] | 3.6
6 | Cc1nc2ccc(-c3ccn4nc(N[C@@H]5CCNCC5(F)F)nc(NC(C)C)c34)nc2n1CC(F)F [Compound 484, (R)-5-(3-(2,2-Difluoroethyl)-2-methyl-3H-imidazo[4,5-b]pyridin-5-yl)-N^2-(3,3-difluoropiperidin-4-yl)-N^4-isopropylpyrrolo[2,1-f][1,2,4]triazine-2,4-diamine] | 6.4
7 | Cc1nc2ccc(-c3ccn4nc(N[C@@H]5CCN(C)CC5(F)F)nc(NC(C)C)c34)nc2n1CC(F)F [Compound 485, (R)—N^2-(3,3-Difluoro-1-methylpiperidin-4-yl)-5-(3-(2,2-difluoroethyl)-2-methyl-3H-imidazo[4,5-b]pyridin-5-yl)-N^4-isopropylpyrrolo[2,1-f][1,2,4]triazine-2,4-diamine] | 7.3
8 | Cc1nc2ccc(-c3ccn4nc(N[C@@H]5CCNCC5(F)F)nc(NC5COC5)c34)nc2n1CC(F)F [Compound 486, (R)-5-(3-(2,2-Difluoroethyl)-2-methyl-3H-imidazo[4,5-b]pyridin-5-yl)-N^2-(3,3-difluoropiperidin-4-yl)-N^4-(oxetan-3-yl)pyrrolo[2,1-f][1,2,4]triazine-2,4-diamine] | 7830
9 | Cc1nc2ccc(-c3ccn4nc(N[C@@H]5CCN(C)CC5(F)F)nc(NC5COC5)c34)nc2n1CC(F)F [Compound 487, (R)—N2-(3,3-Difluoro-1-methylpiperidin-4-yl)-5-(3-(2,2-difluoroethyl)-2-methyl-3H-imidazo[4,5-b]pyridin-5-yl)-N4-(oxetan-3-yl)pyrrolo[2,1-f][1,2,4]triazine-2,4-diamine] | 3.8
10 | Cc1nc2ccc(-c3ccn4nc(N[C@H]5CC[C@](C)(O)CC5)nc(N)c34)nc2n1CC(F)F [Compound 692, (1r,4r)-4-((4-Amino-5-(3-(2,2-difluoroethyl)-2-methyl-3H-imidazo[4,5-b]pyridin-5-yl)pyrrolo[2,1-f][1,2,4]triazin-2-yl)amino)-1-methylcyclohexan-1-ol] | 0.9
